We go through 4 compounds from patent US8207198B2, “Substituted triazole derivatives as oxytocin antagonists” (Pfizer Inc., priority 2005, dated 2012).

This experiment addresses T1, oxytocin receptor (CHO-OTR/NFAT-β-Lactamase cells) (Homo sapiens, UniProt P30559).
T1 construct: expressed in transfected cells; host or cells: CHO-OTR cell line, further transfected with the NFAT-β-lactamase reporter construct
T1 sequence (P30559 1-389): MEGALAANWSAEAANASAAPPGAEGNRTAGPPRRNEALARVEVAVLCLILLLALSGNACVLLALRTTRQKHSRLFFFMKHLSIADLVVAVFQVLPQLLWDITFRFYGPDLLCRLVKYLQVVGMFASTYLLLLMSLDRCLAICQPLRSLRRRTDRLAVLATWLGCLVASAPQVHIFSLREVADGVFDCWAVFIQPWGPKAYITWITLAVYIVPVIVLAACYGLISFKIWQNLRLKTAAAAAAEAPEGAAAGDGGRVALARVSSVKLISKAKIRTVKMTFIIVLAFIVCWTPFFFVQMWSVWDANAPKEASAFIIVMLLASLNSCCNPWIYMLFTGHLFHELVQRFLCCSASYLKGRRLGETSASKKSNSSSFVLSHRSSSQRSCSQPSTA
Put plainly: Oxytocin Receptor Beta-Lactamase Assay. In kind it is cell-based. To be noted: oxytocin stimulation, read-out: oxytocin antagonist activity, expressed as a Ki value. As to the method: A suitable assay for determining the oxytocin antagonist activity of a compound is detailed herein below.
Oxytocin Receptor Beta-Lactamase Assay
Cell Culture Cells used are CHO-OTR/NFAT-β-Lactamase. The NFAT-β-lactamase expression construct was transfected into the CHO-OTR cell line and clonal populations were isolated via fluorescence activated cell sorting (FACS). An appropriate clone was selected to develop the assay. Growth Medium 90% F12 Nutrient Mix, 15 mM HEPES 10% FBS 400 μg/ml Geneticin 200 μg/ml Zeocin 2 mM L-Glutamine Assay Media 99.5% F12 Nutrient Mix, 15 mM HEPES 0.5% FBS
Recovery of cells—A vial of frozen cells is thawed rapidly in 37° C. water bath and the cell suspension transferred into a T225 flask with 50 ml of fresh growth medium and then incubated at 37° C., 5% CO2 in an incubator until the cells adhered to the flask Replace media with 50 ml of fresh growth media the following day.
Culturing cells—CHO-OTR-NFAT-βLactamase cells were grown in growth medium. Cells were harvested when they reached 80-90% confluence removing the medium and washing with pre-warmed PBS. PBS was then removed and Trypsin/EDTA added (3 mls for T225 cm^2 flask) before incubating for 5 min in 37° C./5% CO2 incubator. When cells were detached, pre-warmed growth media was added (7 mls for T225 cm^2 flask) and the cells re-suspended and mixed gently by pipetting to achieve single cell suspension. The cells were split into T225 flask at 1:10 (for 3 days growth) and 1:30 (for 5 days growth) ratio in 35 ml growth medium.
Cells grown at 80-90% confluence were harvested and counted. Suspensions of cells at 2×10^5 cells/ml in growth medium were prepared and 30 μl of cells suspension added in 384-well, black clear-bottom plates. A blank plate containing diluents from each reagent was used for background subtraction.
Plates were incubated at 37° C., 5% CO2 overnight. […]
Preparation of 1 ml of 6× Loading Buffer with Enhanced Loading Protocol (this requires scale-up according to number of plates to be screened). • 12 μl of solution A (1 mM CCF4-AM in Dry DMSO) was added to […] of solution B (100 mg/ml Pluronic-F127 in DMSO+0.1% Acetic Acid) and vortexed. • The resulting solution was added to 925 μl of solution C (24% w/w PEG400, 18% TR40 v/v in water). • 75 μl of solution D was added (200 mM probenecid in 200 mM NaOH). • 10 μl of 6× Loading Buffer was added to all wells and incubated for 1.5 hrs-2 hrs at room temperature in the dark. • The plates were read using an LJL Analyst, Excitation 405 nm, Emission 450 nm and 530 nm, gain optimal, lagtime 0.40 μs integration, 4 flashes, bottom reading.
In the case of `COCc1nnc(N2CC(Oc3ccc(F)cc3Cl)C2)n1-c1ccc(OC)nc1` [Example 25], the inhibition constant Ki came out at 9 nM.

`COCc1nnc(N2CC(Oc3cccc(C)c3C)C2)n1-c1ccc(OC)nc1` [Example 28]: the Ki was 13.8 nM.

As for `COc1ccc(-n2c(C)nnc2N2CCC(Oc3ccc(F)cc3C)CC2)cn1` [Example 43], the Ki was 4.2 nM.

As for `COCc1nnc(N2CCC(Oc3cccc(F)c3C)CC2)n1-c1ccc(OC)nc1` [Example 48], the Ki turned out to be 1.8 nM.

As usually defined, the Ki is a measure of affinity in units of concentration, obtained from inhibition or displacement.
